Source: PMC11542830, “3-nitropyridine analogues as novel microtubule-targeting agents” (PLOS ONE, 2024)

Tests used:
[1] = Pharmacokinetics in rats; assay type: in vivo, Sprague-Dawley rats; conditions: rat
Description: The pharmacokinetic profile of 4AZA2891 was investigated in male Sprague-Dawley rats after intravenous and oral administration of a dose of 2 mg/kg and 20 mg/kg, respectively. The rats were purchased from Charles River Laboratories (Belgium) and 3 rats were included in each dosing route. 4AZA2891 was formulated either as a solution at 1 mg/ml in glucose 5% with 2 equivalents of H3PO4 for the IV dosing or as a solution at 4 mg/ml in water with 2 equivalents of H3PO4 for the oral dosing. Both formulations were heated for 1 hour at 80°C in order to obtain a clear solution. Serial venous blood samples, taken by eye puncture under isoflurane inhalation anesthesia, were collected in heparinized tubes. The plasma fraction was immediately separated by centrifugation 2 min at 13,000 g and stored at -80°C until analysis. Plasma concentrations were measured using liquid chromatography/mass spectrometry/mass spectrometry (LC/MS/MS).
Every plasma and tissue sample was spiked with internal standard followed by the addition of 4 volumes of methanol. The samples were kept for 30 min on ice prior to centrifugation 10 min at 12,000 RPM in order to remove precipitated proteins. The supernatant was analyzed for the presence of 4AZA2891 using LC/MS/MS (Finnigan LCQ advantage Max (ion trap) mass spectrometer with Surveyor HPLC System (Thermo Finnigan)).
As standard for the bioanalysis, 4AZA2891 was diluted stepwise. Each dilution was added to blank control plasma or to blank control tissue homogenate additionally spiked with internal standard, giving rise to standard curves from 5 to 5,000 ng/ml. The lower limit of quantification was 5 to 10 ng/ml depending on the tissues.
Non-compartmental pharmacokinetic analysis was performed on the plasma concentration-time data. PK Solutions 2.0 software (Summit Research Services) was used to calculate the PK parameters.

[2] = system: tubulin; assay: Fluorescence-based tubulin polymerization assay; assay type: biochemical; conditions: purified tubulin, fluorescent reporter, vs DMSO control
Description: Tubulin polymerization in vitro was analyzed using the fluorescence-based tubulin polymerization assay (Cytoskeleton, Inc.), according to the manufacturer’s guidelines. Fluorescence was read on a SaFire II microplate reader (Tecan).

[3] = system: HOP-92; assay: NCI60 5-dose screen, HOP-92; assay type: cell-based; conditions: Homo sapiens, non-small cell lung cancer, Fig 1D, read-out: Log10 GI50 (HOP-92) (converted)
Description: (§1) The screening methodology used in the NCI60 Cell 5-Doses screen is described in detail at https://dtp.cancer.gov/discovery_development/nci-60/methodology.htm. Briefly, cells are seeded in 96 well plates at an appropriate density and incubated for 1 day. After 1 day, some of the plates are processed to determine a time zero density. To the remaining plates, compounds are added over a 5-log M concentration range (1 log dilutions from 10^-4M to 10^-8M). Plates are incubated for two additional days, then fixed and stained with sulforhodamine B. Growth inhibition is calculated relative to cells without drug treatment and the time zero control. The GI50 is the concentration of a compound that causes 50% growth inhibition, relative to the no drug control.

[4] = system: UACC-257; assay: NCI60 5-dose screen, UACC-257; assay type: cell-based; conditions: Homo sapiens, melanoma, Fig 1D, read-out: Log10 GI50 (UACC-257) (converted)
Description: as §1

[5] = system: MALME-3M; assay: NCI60 5-dose screen, MALME-3M; assay type: cell-based; conditions: Homo sapiens, melanoma, Fig 1D, read-out: Log10 GI50 (MALME-3M) (converted)
Description: as §1

[6] = system: NCI/ADR-RES; assay: NCI60 5-dose screen, NCI/ADR-RES; assay type: cell-based; conditions: Homo sapiens, ovarian cancer, Fig 1D, read-out: Log10 GI50 (NCI/ADR-RES) (converted)
Description: as §1

[7] = system: HT-29 xenograft; assay: HT-29 xenograft tumor model; assay type: in vivo; conditions: for ratio of relative tumor volume of treated mice over control mice (T/C): end of the treatment period
Description: Seven-week-old NMRI nude male mice were obtained from Janvier Labs (France) and injected with 10^7 HT-29 cells intradermally on the flank. When tumors reached approximately 100 mm^3, mice were distributed into three groups of four to six mice to give the same average tumor size per group and randomly assigned a treatment condition. Mice were injected IV with 4AZA2891 at 15 mg/kg following a Q1D5x2W administration schedule or at 30 mg/kg following a Q2D3x2W administration schedule or with the vehicle (Q1D5x2W). 4AZA2891 was formulated before each injection at 3 mg/ml in 5% glucose with 2 equivalent H3PO4 and warmed at 80°C for 1 h to obtain a clear solution. Tumor volume was measured as (width^2 × length)/2 in mm^3 and weight gain/loss and survival were monitored. T/C ratio was calculated as the ratio of the relative tumor volume average. The health status and behaviour of the animals were assessed daily for well-being. At the end of the experiment (day 35 after treatment intiation)) or in the events of signs of distress, cachexia or excessive tumor growth, the mice were humanely sacrificed by CO2 inhalation followed by cervical dislocation.

[8] = system: NCI-H226; assay: NCI60 5-dose screen, NCI-H226; assay type: cell-based; conditions: Homo sapiens, non-small cell lung cancer, Fig 1D, read-out: Log10 GI50 (NCI-H226) (converted)
Description: as §1

[9] = system: RXF 393; assay: NCI60 5-dose screen, RXF 393; assay type: cell-based; conditions: Homo sapiens, renal cancer, Fig 1D, read-out: Log10 GI50 (RXF 393) (converted)
Description: as §1

[10] = system: OVCAR-5; assay: NCI60 5-dose screen, OVCAR-5; assay type: cell-based; conditions: Homo sapiens, ovarian cancer, Fig 1D, read-out: Log10 GI50 (OVCAR-5) (converted)
Description: as §1

## Cc1cc(C)cc(Nc2ccc([N+](=O)[O-])c(NCCN3CCOCC3)n2)c1 [Compound 4AZA2891, 6-(3,5-dimethylanilino)-2-(2-morpholinoethylamino)-3-nitropyridine]
[1]; male, Sprague-Dawley, plasma, IV 2 mg/kg, read-out: AUClast in plasma
  AUC(0-t): 253 ng·h/mL
[1]; male, Sprague-Dawley, plasma, IV 2 mg/kg, read-out: elimination half-life (converted)
  half-life: 48 min
[1]; male, Sprague-Dawley, plasma, IV 2 mg/kg, read-out: systemic clearance (converted)
  clearance: 132 mL/min/kg
[1]; male, Sprague-Dawley, plasma, IV 2 mg/kg, read-out: volume of distribution at steady state
  Vd: 7.4 L/kg
[1]; IV 2 mg/kg, lower limit of quantification 10 ng/ml
  time detected in the plasma: up to 3 hours
[1]; oral 20 mg/kg
  oral bioavailability: not orally bioavailable
[1]; oral 20 mg/kg, all time points
  plasma levels after oral dose: below the limit of quantification
[2]
  effect on tubulin polymerization in vitro: dose-dependently inhibits tubulin polymerization
[3]
  GI50: < 10 nM
[4]
  GI50: > 100000 nM
[5]
  GI50: 15800 nM
[6]
  GI50: < 10 nM
[7]; 15 mg/kg IV Q1D5x2W
  ratio of relative tumor volume of treated mice over control mice (T/C): 42%
[7]; 30 mg/kg IV Q2D3x2W
  ratio of relative tumor volume of treated mice over control mice (T/C): 34%
[7]; both dosing regimen (15 mg/kg Q1D5x2W, 30 mg/kg Q2D3x2W), IV
  tumor growth inhibition: significant tumor growth inhibition
[7]; both dosing regimens, IV, tumor bearing mice
  tolerability (body weight evolution): well tolerated
[8]
  GI50: 31.6 nM
[9]
  GI50: 38.9 nM
[10]
  GI50: 36.3 nM
